For this experiment, the target named is T1, Recombinant human EP300 containing the bromodomain (EP300-BD (1040-1161)) (Homo sapiens, UniProt Q09472).
T1 construct: Recombinant human EP300 bromodomain (EP300-BD (1040-1161)); made in house; host or cells: E. coli BL21-CodonPlus (DE3), modified pET vector
T1 sequence (Q09472 1040-1161): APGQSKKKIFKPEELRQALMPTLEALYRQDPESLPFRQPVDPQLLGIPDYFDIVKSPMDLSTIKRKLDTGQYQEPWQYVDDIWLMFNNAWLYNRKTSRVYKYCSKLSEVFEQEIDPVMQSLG
Kind of experiment: EP300 Alphascreen binding assay. The method, boiled down: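 Displacement of a biotinylated acetyl-K56 histone H3 peptide from the N-His bromodomain construct (1040-1161) measured by AlphaScreen proximity, beads at 7.5 μg/ml final, read 60 min after addition. Protein, peptide and compound first incubated 1 h at room temperature, pH 7.5 HEPES buffer; IC50 by four-parameter logistic fit.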
On the technique in general: Bead proximity is the source of the signal in Alpha formats.

Experimental findings from US11446287B2, “Compounds and methods for EP300 or CBP modulation and indications therefor” (Opna Immuno-Oncology SA, priority 2019, dated 2022) are described below.

Structures are written as SMILES.

A word on the IC50: it is the concentration needed to halve the response being measured. Regarding `COc1cc(C(=O)O)ccc1-c1c(C(F)(F)F)n([C@@H](C)c2ccccn2)c2cc(-c3c(C)noc3C)cnc12` [P-0236, (S)-4-(6-(3,5-dimethylisoxazol-4-yl)-1-(1-(pyridin-2-yl)ethyl)-2-(trifluoromethyl)-1H-pyrrolo[3,2-b]pyridin-3-yl)-3-methoxybenzoic acid], the 50% inhibitory concentration (IC50) was 0.1 to 1000 nM.

As to `Cc1noc(C)c1-c1cnc2c(-c3cn(C)nc3C3CC3)c(C(F)(F)F)n([C@@H](C)c3ccccn3)c2c1` [P-0237, (S)-4-(3-(3-cyclopropyl-1-methyl-1H-pyrazol-4-yl)-1-(1-(pyridin-2-yl)ethyl)-2-(trifluoromethyl)-1H-pyrrolo[3,2-b]pyridin-6-yl)-3,5-dimethylisoxazole], the 50% inhibitory concentration (IC50) was in the range of 0.1 to 1000 nM.

`Cc1noc(C)c1-c1cnc2c(-c3cc(C(=O)O)ccc3F)c(C(F)(F)F)n([C@@H](C)c3ccccn3)c2c1` [P-0238, (S)-3-(6-(3,5-dimethylisoxazol-4-yl)-1-(1-(pyridin-2-yl)ethyl)-2-(trifluoromethyl)-1H-pyrrolo[3,2-b]pyridin-3-yl)-4-fluorobenzoic acid]: the half-maximal inhibitory concentration (IC50) fell in the range of 0.1 to 1000 nM.

With `COc1ccc(C(=O)O)cc1-c1c(C(F)(F)F)n([C@@H](C)c2ccccn2)c2cc(-c3c(C)noc3C)cnc12` [P-0239, (S)-3-(6-(3,5-dimethylisoxazol-4-yl)-1-(1-(pyridin-2-yl)ethyl)-2-(trifluoromethyl)-1H-pyrrolo[3,2-b]pyridin-3-yl)-4-methoxybenzoic acid], the IC50 is 0.1 to 1000 nM.

`Cc1noc(C)c1-c1cnc2c(-c3cc(F)cc(C(=O)O)c3)c(C(F)(F)F)n([C@@H](C)c3ccccn3)c2c1` [P-0240, (S)-3-(6-(3,5-dimethylisoxazol-4-yl)-1-(1-(pyridin-2-yl)ethyl)-2-(trifluoromethyl)-1H-pyrrolo[3,2-b]pyridin-3-yl)-5-fluorobenzoic acid]: the half-inhibitory concentration (IC50) is 0.1 to 1000 nM.

Consider `Cc1noc(C)c1-c1cnc2c(-c3cc(Cl)cc(C(=O)O)c3)c(C(F)(F)F)n([C@@H](C)c3ccccn3)c2c1` [P-0241, (S)-3-chloro-5-(6-(3,5-dimethylisoxazol-4-yl)-1-(1-(pyridin-2-yl)ethyl)-2-(trifluoromethyl)-1H-pyrrolo[3,2-b]pyridin-3-yl)benzoic acid], for which the half-inhibitory concentration (IC50) was in the range of 0.1 to 1000 nM.

Regarding `Cc1noc(C)c1-c1cnc2c(-c3ccc(C(=O)O)c(F)c3)c(C(F)(F)F)n([C@@H](C)c3ccccn3)c2c1` [P-0242, (S)-4-(6-(3,5-dimethylisoxazol-4-yl)-1-(1-(pyridin-2-yl)ethyl)-2-(trifluoromethyl)-1H-pyrrolo[3,2-b]pyridin-3-yl)-2-fluorobenzoic acid], the half-maximal inhibitory concentration (IC50) lay within 1000 to 8000 nM.
